These results are taken from paper PMC7311950, “Potent Tetrahydroquinolone Eliminates Apicomplexan Parasites” (Frontiers in Cellular and Infection Microbiology, 2020).

A word on the half-life: it is the time needed for the level to fall by half in the phase considered. As a reminder, the IC50 is the concentration needed to halve the response being measured. A low value points to greater potency.

Data set [1] can be described thus: Metabolic stability in mouse liver microsomes. The conditions noted are these: for half-life: mouse, liver microsomes. How it is done:
The effects of changing R1 as 7-Et, 7-Me, 6-CF3, or 6-Me on activity against RH strain tachyzoites, kinetic solubility, and metabolic stability were compared. Kinetic solubility and metabolic stability in human or murine liver microsomes were measured. The hERG (human Ether-à-go-go-Related) liability was also determined. The hERG gene (KCNH2) encodes a protein Kv11.1, the alpha subunit of a potassium ion channel. This channel conducts the rapid component of the delayed rectifier potassium current, IKr, which is critical for repolarization of cardiac action potentials. A reduction in hERG currents from adverse drug effects can lead to long QT interval syndromes. These syndromes are characterized by action potential prolongation, lengthening of the QT interval on surface EKG, and an increased risk for “torsade de pointes” arrhythmias and sudden death. The MDCK-MDR1 Permeability Assay was also performed. MDCK-MDR1 refers to the ability of a compound to permeate across membranes of MDCK-MDR1 (Madin Darby canine kidney [MDCK] cells with the MDR1 gene [ABCB1], the gene encoding for the efflux protein, P-glycoprotein (P-gp)) in vitro. Assessing transport in both directions (apical to basolateral and basolateral to apical) across the cell monolayers enables an efflux ratio to be determined. […] This provides a prediction of blood brain barrier (BBB) penetration potential/permeability and efflux ratio. Effect in CACO-2 (Colon Adenocarcinoma cells) as a permeability assay and on cytochrome P450 (CYP 450) were also determined. CYP enzymes catalyze oxidative biotransformation (phase 1 metabolism) of most drugs. CYP enzymes, bind to membranes in a cell (cyto) and contain a heme pigment (chrome and P) that absorbs light at a wavelength of 450 nm when exposed to carbon monoxide. Metabolism of a drug by CYP enzymes is a major source of variability in drug effect. These were measured by Chem Partners. The relative effect on HFF and parasite enzymes also were compared.
In vitro absorption, distribution, metabolism, excretion, and toxicity (ADMET) analyses of the THQ compounds were outsourced to ChemPartner Shanghai Ltd. ELQ-271 (synthesized in-house) was tested as a comparison.
On the technique in general: Liver microsomes are a subcellular fraction often used to study metabolism.

In data set [2] the test system is T. gondii Me49 strain. Nature of the data set: Established chronic Me49 infection of Balb/C mice, brain cysts. The conditions noted are these: treatment begun day 30 after infection, IP daily for 14 days. In kind it is in vivo, Toxoplasma gondii. Here is the method:
In separate experiments, Balb/C mice were infected IP with 20 × 10^3 T. gondii Me49 strain tachyzoites. In these separate studies of mice with established chronic infection, after 30 days, IP treatment with JAG21 was begun each day for 14 days. JAG21 was dissolved in DMSO and administered IP in a total volume of 0.05 mL. In experiments when tafenoquine was administered alone or with JAG21 in some groups 3 mg/kg tafenoquine was administered once on day−1 from when JAG21 treatment was initiated. Cysts in brain were quantitated on day […], 16 days after discontinuing JAG21. Immunoperoxidase staining was performed. Parasite burden was quantitated in two ways. The first was using a positive pixel count algorithm of Aperio ImageScope software. Positive pixels were normalized to tissue area (mm^2). Briefly, automated quantitation was done by counting positive pixels per square area. The entire brain in one section was scanned for each mouse. The Cyst burden was quantitated as units of positive pixels per mm^2. The average ± S.E.M. numbers of mm^2 per slide quantitated was 30.2±1.6 square mm per mouse for this quantification. Each highpower field of view shown in Figure 5C is ~0.02 mm^2 per field of view. Cysts on each slide for each condition in two biological replicate experiments were also quantitated by 2 separate observers independently and results compared with automated counting, separately.

Data set [3] has as its target CYP450 2C9 (Homo sapiens, UniProt P11712). Nature of the data set: CYP450 inhibition, 2C9. In kind it is in vitro ADME.
Data set [4] deals with cytochrome P450 (CYP 450), 4 of 5 isoforms tested. Nature of the data set: CYP450 inhibition. In kind it is in vitro ADME. The conditions noted are these: human; 4/5 isoforms.
The test system of data set [5] is T. gondii RH-YFP tachyzoites. As to the kind of experiment: Synergy studies with RH strain YFP tachyzoites. It counts as cell-based, Toxoplasma gondii. How it is done: Atovaquone and pyrimethamine were used to test whether they are synergistic with JAG21. Serial dilutions of the combination of JAG21 and either atovaquone or pyrimethamine were used in an in vitro challenge assay as described above. The EC50 of each compound and the combination of two compounds were determined. The effect of the combination of drugs was calculated with the following formula:C= [A]c/[A]a+[B]c/[B]a. If C is lower than 1, the two compounds tested have synergistic effect; if C is >1, the two compounds tested have antagonist effect and if C is 1 they are additive.

Setting [6] is: T1/2 (M), predicted half-life in mouse liver microsomes, Figure 1A, min in Figure 2E for the same values.

“Also recorded” adds a separate entry of the source. Read-outs that look alike come from different tables or passages of the source.

Chain of CYP450 2C9 (P11712 whole entry, canonical isoform): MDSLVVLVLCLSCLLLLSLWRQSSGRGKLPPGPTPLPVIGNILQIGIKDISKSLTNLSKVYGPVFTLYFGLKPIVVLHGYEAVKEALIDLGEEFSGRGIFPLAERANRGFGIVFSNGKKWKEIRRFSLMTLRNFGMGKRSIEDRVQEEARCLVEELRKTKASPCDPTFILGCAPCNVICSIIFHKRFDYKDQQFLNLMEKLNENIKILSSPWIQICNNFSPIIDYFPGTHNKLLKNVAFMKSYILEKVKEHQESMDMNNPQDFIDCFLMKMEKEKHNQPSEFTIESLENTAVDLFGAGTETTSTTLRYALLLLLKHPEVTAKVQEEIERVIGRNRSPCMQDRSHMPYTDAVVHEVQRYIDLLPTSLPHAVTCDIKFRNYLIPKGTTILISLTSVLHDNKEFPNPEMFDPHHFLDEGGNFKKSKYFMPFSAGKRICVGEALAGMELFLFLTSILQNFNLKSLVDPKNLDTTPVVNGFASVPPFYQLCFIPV

Turning to `Cc1[nH]c2c(c(=O)c1-c1ccc(Oc3ccc(Cl)cc3)cc1)CCCC2` [JAG50], the Mouse liver microsomes in data set [1] is recorded as 68.55 min. For the same compound, in data set [1] (setting [6]), the half-life was 1.14 h.

Consider `Cc1[nH]c2c(c(=O)c1-c1ccc(Oc3ccc(OC(F)(F)F)cc3)cc1)CCCC2` [JAG21, 2-Methyl-3-(4-(4-(Trifluoromethoxy)Phenoxy)Phenyl)-5,6,7,8-Tetrahydroquinolin-4-One], for which the Me49 brain cysts result in data set [2] is “marked, statistically significant reduction; also recorded: markedly reduce”. In addition, the IC50 was 4 µM in data set [3] and more than 10 µM in data set [4]. The half-life in data set [1] (setting [6]) and in data set [1] (half-life in mouse liver microsomes) was 1.68 h in each case. Also, the Mouse liver microsomes in data set [1] (stability, Figure 2E) was found to be 101.09 min. Moreover, the “effect of combination with pyrimethamine” value in data set [5] (data not shown) is “no antagonism was observed”. Besides, the “effect of combination with atovaquone” value in data set [5] (isobologram) is “synergy”.
